Results published in US8624035B2, “Functionalized cyanine having a silane linker arm, a method of preparing thereof and uses thereof” (Universita' Degli Studi di Torino, priority 2008, dated 2014).

Experiment: Photodegradation over time under excitation with laser light at 532 nm
Assay type: physicochemical
Conditions: after 350 minutes, FIG. 3
Procedure: The emission of nanoparticles is 15-folds higher than the emission of the solution. Moreover, the photodegradation of fluorescent nanoparticles over time was compared to the photodegradation of the cyanine in solution. […] It observed that the cyanine immobilized within the nanoparticle undergoes a 5% photodegradation after 350 minutes, whilst the cyanine dye in solution undergoes a 45% photodegradation within the same time.

SMILES: CO[Si](CCCN1/C(=C/C=C/C2=[N+](CCC[Si](OC)(OC)OC)c3ccc(S(=O)(=O)[O-])cc3C2(C)C)C(C)(C)c2cc(S(=O)(=O)[O-])ccc21)(OC)OC.[K+] [Compound 1, 1-propyltrimethoxysilane-1′-propyltrimethoxysilane-3,3,3,3′-tetramethyl-5,5′-disulfonate-indomonocarbocyanine potassium salt]
- photodegradation (percentage of emission compared to time zero): 45%
